According to patent publication US20230010299A1, “HETEROCYCLIC TRPML1 AGONISTS” (LIBRA THERAPEUTICS, INC., priority 2019, published 2023):

target: T1, TRPML1 (Homo sapiens, UniProt Q9GZU1); experiment: Cellular TRPML1 assay (FLIPR TETRA, GCaMP6f calcium read-out); type: cell-based; conditions: HEK T-REx/GCaMP6f/TRPML1 cells; Ca2+ response over 300 s, normalized to ML-SA1 50 μM; Ca2+ free or Optimem condition not given; read-out: Ec50 (Activity of TRPML1 agonists)
T1 construct: expressed in transfected cells
Method: Buffers and reagents • PBS (D-PBS without calcium and magnesium; EuroClone) • Trypsin (Trypsin 0.05%, EDTA 0.02% in PBS; EuroClone) • DMSO (Sigma) • Ca^2+ free Tyrode's buffer: in-house solution (130 mM NaCl, 5 mM KCl, 1 mM MgCl2, 5 mM NaHCO3, 20 mM HEPES in water at pH 7.4; sterile filtered). • Opti-MEM (Gibco) • Agonist: ML-SA1 (Sigma); stock: 60 mM in DMSO, stored at −20° C. • Blocker: ML-SI3 (in house synthesis); stock: 20 mM in DMSO, stored at −20° C.
The final clone for the TRPML1 assay is HEK T-REx/GCaMP6f/TRPML1.
GCaMP6f is a genetically encoded calcium indicator that is stably expressed in this cell line and used as a fluorescent read-out.
Experiments are performed in 384 MTP format. Cells are seeded at 15000 cells/well either in 25 μl/well of growth medium or in 20 μl/well of Optimem+0.5% FBS without selection antibiotics. Twenty-four hours later, cells are assayed for the response to various compounds using the Ca^2+ sensitive GCaMP6f protein stably expressed in the cells as readout.
The experiment is performed in a 384-well format according to the following procedures for either Ca^2+ free or Optimem conditions: • Ca^2+ free condition (in absence of extracellular Ca^2+): • 24 h after seeding, pre-incubate the cells at room temperature for about 10′. • Then remove the culture medium and replace it with 20 μL of Ca^2+ free Tyrode's buffer. • Start the experiment at the FLIPR^TETRA by injecting 10 μL/w of 3× concentrated test compounds and controls in Ca^2+ free Tyrode's buffer. Monitor the kinetic response over a period of 300 seconds. • Final DMSO concentration: 0.5% • Optimem condition (in presence of extracellular Ca^2+): • 24 h after seeding, pre-incubate the cells at room temperature for about 10′. • Start the experiment at the FLIPR^TETRA by injecting 10 μL/w of 3× concentrated test compounds and controls in Ca^2+ free Tyrode's buffer. Monitor the kinetic response over a period of 300 seconds. • Final DMSO concentration: 0.5%
Data from FLIPR^TETRA measurements are analyzed with the Genedata Screener® software.
Stimulator controls (Col 2): injection of ML-SA1 EC100 (50 μM) in alternated wells positions
Neutral controls (Col 2): injection of 0 mM Ca^2+ free Tyrode's buffer in alternated wells positions.
Test wells (Col 3-22): test compounds dose response curve from either 100 μM with 1:2 dilution steps or from 50 μM with 1:3.16 dilution steps.

T1 sequence (Q9GZU1 whole entry): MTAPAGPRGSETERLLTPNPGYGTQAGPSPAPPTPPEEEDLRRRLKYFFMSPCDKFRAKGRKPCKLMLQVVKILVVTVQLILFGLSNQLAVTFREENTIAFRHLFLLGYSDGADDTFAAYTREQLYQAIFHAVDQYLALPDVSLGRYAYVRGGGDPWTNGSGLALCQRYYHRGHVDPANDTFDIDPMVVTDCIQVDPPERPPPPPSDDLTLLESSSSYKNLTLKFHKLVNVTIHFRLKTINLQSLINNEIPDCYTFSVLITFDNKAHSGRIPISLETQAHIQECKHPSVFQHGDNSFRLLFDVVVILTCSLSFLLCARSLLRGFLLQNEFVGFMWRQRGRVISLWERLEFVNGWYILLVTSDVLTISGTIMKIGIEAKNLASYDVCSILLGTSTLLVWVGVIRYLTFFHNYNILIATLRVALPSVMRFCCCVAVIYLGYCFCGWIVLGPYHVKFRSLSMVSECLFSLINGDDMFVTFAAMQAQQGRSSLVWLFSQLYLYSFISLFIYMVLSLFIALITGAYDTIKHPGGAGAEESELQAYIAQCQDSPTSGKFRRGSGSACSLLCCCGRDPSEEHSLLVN

Row | EC50 [µM] | Structure (SMILES)
1 | 2.4 | CC1Cc2cc(S(=O)(=O)Nc3ccccc3N3CCN(C(=O)OC(C)(C)C)CC3)ccc2O1 (racemic) [Example 92, tert-butyl 4-(2-((2-methyl-2,3-dihydrobenzofuran)-5-sulfonamido)phenyl)piperazine-1-carboxylate]
2 | 4.4 | COC1CCCN(c2ccccc2NS(=O)(=O)c2ccc(S(=O)(=O)N(C)C)cc2)CC1 (single isomer, unassigned) [Example 41, N1-(2-(4-methoxyazepan-1-yl)phenyl)-N4,N4-dimethylbenzene-1,4-disulfonamide]
3 | 5.6 | COC1CCCN(c2ccccc2NS(=O)(=O)c2ccc(S(=O)(=O)N(C)C)cc2)CC1 (single isomer, unassigned) [Example 42, N1-(2-(4-methoxyazepan-1-yl)phenyl)-N4,N4-dimethylbenzene-1,4-disulfonamide]
4 | 15.9 | CN(C)S(=O)(=O)c1ccc(S(=O)(=O)NC2CCCCC2N2CCC(Oc3ccccc3)CC2)cc1 (single isomer, unassigned) [Example 62, N1,N1-dimethyl-N4-[2-(4-phenoxypiperidin-1-yl)cyclohexyl]benzene-1,4-disulfonamide]
5 | 4.9 | CC1Cc2cc(S(=O)(=O)Nc3ccccc3N3CCN(C(=O)OC(C)(C)C)CC3)ccc2O1 (single isomer, unassigned) [Example 93, tert-butyl 4-(2-((2-methyl-2,3-dihydrobenzofuran)-5-sulfonamido)phenyl)piperazine-1-carboxylate]
6 | 3.8 | CC1Cc2cc(S(=O)(=O)Nc3ccccc3N3CCN(C(=O)OC(C)(C)C)CC3)ccc2O1 (single isomer, unassigned) [Example 94, tert-butyl 4-(2-((2-methyl-2,3-dihydrobenzofuran)-5-sulfonamido)phenyl)piperazine-1-carboxylate]
7 | 91.1 | O=S(=O)(Nc1ccccc1N1CCCCC1)c1cc2ccccc2s1 [Example 1, N-[2-(piperidin-1-yl)phenyl]-1-benzothiophene-2-sulfonamide]
8 | 58.9 | CN(C)c1ccc(S(=O)(=O)Nc2ccccc2N2CCCCC2)cc1 [Example 2, 4-(dimethylamino)-N-[2-(piperidin-1-yl)phenyl]benzene-1-sulfonamide]
9 | 50.2 | CN(C)c1ccccc1NS(=O)(=O)c1ccc(S(=O)(=O)N(C)C)cc1 [Example 3, N4-[2-(dimethylamino)phenyl]-N1,N1-dimethylbenzene-1,4-disulfonamide]
10 | 8.4 | CN(C)S(=O)(=O)c1ccc(S(=O)(=O)Nc2ccccc2N2CC3CCC2C3)cc1 (stereo not drawn) [Example 4, N4-(2-{2-azabicyclo[2.2.1]heptan-2-yl}phenyl)-N1,N1-dimethylbenzene-1,4-disulfonamide]
11 | 6 | CN(C(=O)c1ccc(S(=O)(=O)N(C)C)cc1)c1ccccc1N1CCN(C(=O)OC(C)(C)C)CC1 [Example 5, tert-butyl 4-(2-(4-(N,N-dimethylsulfamoyl)-N-methylbenzamido)phenyl)piperazine-1-carboxylate]
12 | 85.4 | CN(C)S(=O)(=O)c1ccc(CC(=O)Nc2ccccc2N2CCCC2)cc1 [Example 7, 2-[4-(dimethylsulfamoyl)phenyl]-N-[2-(pyrrolidin-1-yl)phenyl]acetamide]
13 | 64 | CN(C)S(=O)(=O)c1ccc(S(=O)(=O)Nc2ccccc2N2CCc3ccccc32)cc1 [Example 8, N4-[2-(2,3-dihydro-1H-indol-1-yl)phenyl]-N1,N1-dimethylbenzene-1,4-disulfonamide]
14 | 47.4 | CN(C)S(=O)(=O)c1ccc(S(=O)(=O)Nc2ccccc2N2CCc3ccccc3C2)cc1 [Example 9, N1,N1-dimethyl-N4-[2-(1,2,3,4-tetrahydroisoquinolin-2-yl)phenyl]benzene-1,4-disulfonamide]
15 | 8.4 | CN(C(=O)c1ccc(S(=O)(=O)N(C)C)cc1)c1ccccc1N1CCC(Oc2ccccn2)CC1 [Example 10, 4-(N,N-dimethylsulfamoyl)-N-methyl-N-(2-(4-(pyridin-2-yloxy)piperidin-1-yl)phenyl)benzamide]
